Paper PMC5384453, “A multi-functional PEGylated gold(III) compound: potent anti-cancer properties and self-assembly into nanostructures for drug co-delivery” (Chemical Science, 2016)

What was measured:
MIHA = experiment: In vitro cytotoxicity, MTT assay; type: cell-based; conditions: MTT assay, 72 h incubation, read-out: IC50
Experimental: (§1) In vitro cytotoxicity assays. HeLa, NCI-H460, HCT116, A2780, A2780cis and
(§2) cells), respectively, were seeded in 96-well plates for 24 h. The cells were then treated with a serial concentration of gold(III) complexes and incubated at 37 °C under a 5% CO2 atmosphere for 72 h. For nanostructures of 1, 2 and NC1, they were dissolved in
(§3) cisplatin were dissolved in culture medium-DMSO solution mixture (99:1, v/v).
(§4) After incubation for 72 h, MTT in PBS solution (5 mg/mL, 10 μL) was added to each well. The plates were incubated at 37 °C under a 5% CO2 atmosphere for another 4 h, and the cells were lysed by the addition of SDS solution (10%, w/w) with 0.01 M HCl (100 μL). After incubation in dark at 37 °C overnight, the cell viability after treatment was determined by a microtitre plate reader monitoring at the absorbance at 590 nm,

HCT116 = experiment: In vitro cytotoxicity, MTT assay; type: cell-based, human
Experimental: as §1, §2, §3, §4

HeLa = experiment: In vitro cytotoxicity, MTT assay; type: cell-based, human
Experimental: as §1, §2, §3, §4

A2780adr = experiment: In vitro cytotoxicity, MTT assay; type: cell-based, human
Experimental: as §1, §2, §3, §4

HCT116 cells = experiment: Hydrolysis in live cells, UPLC-QTOF-MS of cell lysates; type: in vitro ADME, human; conditions: 2 μM, 24 h
Experimental: Hydrolysis of the gold(III) complexes in live cells was examined by ultra-performance liquid chromatography coupled quadrupole-time-of-flight mass spectrometry (UPLC-QTOF-MS). Colon cancer cells (HCT116) were treated with 1, 2 and 3 (2 μM) for 24 h, harvested and lysed in an acetonitrile–water solution mixture (3 : 1, v/v) prior to UPLC-QTOF-MS analysis. […] Therefore, the peak is attributable to the major metabolite of 1 formed in HCT116 cells. […] This should be attributable to the higher stability of the amide bond versus the ester bond in vitro. […]
which reflected the amount of blue formazan formed. IC50 values were then determined by CompuSyn S6 from three independent measurements.
Study on the release of hydrolyzed product from 1 and 2 in aqueous buffer solutions by ICP-MS. The nanostructures of gold(III) complex was dissolved in PBS solution (pH 7.4; 1 mg/mL) or sodium acetate buffer solution (pH 4.0; 1 mg/mL) and was dialyzed against 1 L of the buffer solution at 37 °C using semipermeable minidialysis tubes (molecular weight cut-off = 1,000 Da; GE Healthcare). At a predetermined time, an aliquot of solution was removed and dissolved in HNO3/HCl solution mixture (9:1, v/v; volume of aliquot: volume of acid mixture = 1:3). The solution mixture was heated at 65 °C with shaking overnight, and the gold content was determined by ICP-MS from three independent aliquots.
Study on the hydrolysis of 1 and 2 in aqueous buffer solutions by 1H NMR. […]
The flow rate was 0.4 mL/min and the injection volume was 2 µL. The UPLC-QTOF-MS chromatograms of 1, 3, 4 and solvent control in acetonitrile were also recorded for the interpretation of UPLC-QTOF-MS chromatograms of the cell lysate. […]
Au1a (2 µM; with 1 vol% DMSO). […] An aliquot of the cell suspension was subjected to Bio-rad protein assay with a microtitre plate reader at the absorbance at 595 nm, using bovine serum albumin as the protein standard. […] The solution mixture was heated at 65 °C with shaking overnight, and the gold content was determined by ICP-MS. […]

CCD-19Lu = experiment: In vitro cytotoxicity, MTT assay; type: cell-based, human; conditions: 72 h incubation
Experimental: as §1, §2, §3, §4

[1] = Transmission electron microscopy of nanostructures; type: physicochemical; conditions: self-assembled in PBS
Source text: On the other hand, the almost neutral zeta potentials of the nanostructures of 1 and 2 validated the presence of PEG pendant in the shell of the nanostructures. The identity of gold species in the core of the nanostructures was supported by the good contrast of the core in the TEM images (Fig. 1c and S3a ^†) and energy-dispersive X-ray (EDX) spectra (Fig. 1f).
The gold content in NC1 was confirmed by EDX (Fig. 1g).

A2780 = experiment: In vitro cytotoxicity, MTT assay; type: cell-based, human
Experimental: as §1, §2, §3, §4

NCM460 = experiment: In vitro cytotoxicity, MTT assay; type: cell-based, human; conditions: 72 h incubation
Experimental: as §1, §2, §3, §4

NCI-H460 = experiment: In vitro cytotoxicity, MTT assay; type: cell-based, human
Experimental: as §1, §2, §3, §4

A2780cis = experiment: In vitro cytotoxicity, MTT assay; type: cell-based, human
Experimental: as §1, §2, §3, §4

Substance: [Au(TPP–CONH–PEG5000–OCH3)]Cl [Compound 2]
- IC50 (MIHA): 115 ± 17.1 µM
- IC50 (HCT116; HCT116, MTT assay, 72 h incubation): 8.24 ± 0.22 µM
- Toxicity toward cancer cells compared to that toward MIHA cells, HCT-116 (HCT116; IC50 of MIHA cells / IC50 of HCT-116): 14.0
- Toxicity toward cancer cells compared to that toward NCM460 cells, HCT-116 (HCT116; IC50 of NCM460 cells / IC50 of HCT-116): 8.6
- IC50 (HeLa; HeLa, MTT assay, 72 h incubation, read-out: IC50): 46.5 ± 4.4 µM
- Toxicity toward cancer cells compared to that toward MIHA cells, HeLa (HeLa; IC50 of MIHA cells / IC50 of HeLa): 2.5
- Toxicity toward cancer cells compared to that toward NCM460 cells, HeLa (HeLa; IC50 of NCM460 cells / IC50 of HeLa): 1.5
- IC50 (A2780adr; A2780adr, MTT assay, 72 h incubation, read-out: IC50): > 120 µM
- Resistance found in A2780adr (A2780adr; IC50 of A2780adr cells / IC50 of A2780 cells): > 9.09
- Toxicity toward cancer cells compared to that toward MIHA cells, A2780adr (A2780adr; IC50 of MIHA cells / IC50 of A2780adr): < 1.0
- Toxicity toward cancer cells compared to that toward NCM460 cells, A2780adr (A2780adr; IC50 of NCM460 cells / IC50 of A2780adr): < 0.6
- hydrolysis / release of [Au(TPP–COOH)]+ in cells (HCT116 cells): no release of [Au(TPP–COOH)]^+ can be found
- IC50 (CCD-19Lu): > 100 µM
- diameter of nanostructures (TEM) [1]: ~200 nm
- IC50 (A2780; A2780, MTT assay, 72 h incubation): 13.4 ± 0.18 µM
- Toxicity toward cancer cells compared to that toward MIHA cells, A2780 (A2780; IC50 of MIHA cells / IC50 of A2780): 8.6
- Toxicity toward cancer cells compared to that toward NCM460 cells, A2780 (A2780; IC50 of NCM460 cells / IC50 of A2780): 5.3
- IC50 (NCM460): 71 ± 6.42 µM
- Toxicity toward cancer cells compared to that toward MIHA cells, NCI-H460 (NCI-H460; IC50 of MIHA cells / IC50 of NCI-H460): 4.7
- Toxicity toward cancer cells compared to that toward NCM460 cells, NCI-H460 (NCI-H460; IC50 of NCM460 cells / IC50 of NCI-H460): 2.9
- IC50 (NCI-H460; NCI-H460, MTT assay, 72 h incubation): 24.7 ± 4.62 µM
- IC50 (A2780cis; A2780cis, MTT assay, 72 h incubation): 47.2 ± 8.62 µM
- Resistance found in A2780cis (A2780cis; IC50 of A2780cis cells / IC50 of A2780 cells): 3.57
- Toxicity toward cancer cells compared to that toward MIHA cells, A2780cis (A2780cis; IC50 of MIHA cells / IC50 of A2780cis): 2.4
- Toxicity toward cancer cells compared to that toward NCM460 cells, A2780cis (A2780cis; IC50 of NCM460 cells / IC50 of A2780cis): 1.5
